# Assay results: US9474780B2, “GIP and GLP-1 co-agonist compounds” (Eli Lilly and Company, priority 2015, dated 2016)
# Experiments:
# [1] = target: T1, human GLP-1R (Homo sapiens, UniProt P43220); test: Functional hGLP-1R cAMP assay in HEK-293 clonal cells; format: cell-based; settings: HEK293; percent of maximal response of hGLP-1(7-36)NH2
# T1 construct: expressed in transfected cells; host or cells: 293HEK, Hygromycin-selected; crude plasma membranes
# Procedure: After an incubation of 60 minutes at room temperature, the resulting increase in intracellular cAMP is quantitatively determined using the CisBio cAMP Dynamic 2 HTRF Assay Kit (Bedford, Mass.). Briefly, cAMP levels within the cell are detected by adding the cAMP-d2 conjugate in cell lysis buffer (20 μl) followed by the antibody anti-cAMP-Eu^3+-Cryptate, also in cell lysis buffer (20 μl). The resulting competitive assay is incubated for at least 60 minutes at room temperature, then detected using a PerkinElmer Envision® instrument with excitation at 320 nm and emission at 665 nm and 620 nm Envision units (emission at 665 nm/620 nm*10,000) are inversely proportional to the amount of cAMP present and are converted to nM cAMP per well using a cAMP standard curve. […] A relative EC50 value and percent top (Emax) is derived by non-linear regression analysis using the percent maximal response versus the concentration of the compound of the present invention, fitted to a four-parameter logistic equation.
# [2] = Pharmacokinetics in cynomolgus monkeys; format: in vivo; settings: cynomolgus monkey, plasma
# Procedure: The compounds are administered by a single intravenous or subcutaneous dose (0.2 mg/kg) in 20 mM citrate buffer (pH 7.0) at a volume of 0.21 ml/kg. Blood is collected from each animal at 2, 4, 8, 12, 24, 48, 72, 96, 120, 144, 168, 204, 240, and 312 hours post-dosage. The plasma concentrations of compounds of the present invention are determined by a LC/MS method. Briefly, a compound of the present invention is extracted from 100% Monkey plasma sample (50 μl) diluted with 1×PBS (150 μl) and mixed with N-butanol (400 μl). Three distinct liquid layers are formed with the compound located in the top layer. A volume of 200 μl is transferred to a v-bottom 96-well plate, dried down using heated Nitrogen gas and reconstituted with 100 μl of 30% acetonitrile/0.1% formic acid. 20 μl of the reconstituted sample is injected onto a Supelco Analytical Discovery bio wide C5 3 μm column. The column effluent is directed into a Thermo Q-Exactive mass spectrometer for detection and quantitation.
# [3] = Plasma corticosterone in Sprague Dawley rats; format: in vivo, rat; settings: for Corticosterone, Mean: 16 hours
# Procedure: Plasma corticosterone levels are evaluated using Sprague Dawley Rats (Harlan, Indianapolis), weighing approximately 220 g and acclimated for at least 72 hours before handling. The rats are then dosed with vehicle (20 mM citrate buffer, pH 7), semaglutide (10 nmol/kg), or compounds of the present invention at 3, 10 or 30 nmol/kg s.c. with 8 rats per dose group. The rats are decapitated 16 hours later. Blood is collected into EDTA tubes on ice, then centrifuged 5 minutes at 8000 RPM in a Eppendorf 5402 tabletop centrifuge. Plasma is stored at −80° C. until analysis.
# For corticosterone analysis, corticosterone standards (Sigma, 27840) are prepared by serial dilutions in HPLC-grade methanol, H2O and the addition of 5% charcoal stripped rat serum (Bioreclamation, RATSRM-STRPD-HEV). Rat plasma samples are diluted with PBS, precipitated with cold methanol, incubated for 20 minutes at −20° C., and then centrifuged at 14,000 RPM with an Eppendorf 5417R at 4° C. Supernatants are extracted, evaporated under a stream of N2 gas, and reconstituted in MeOH/H2O (1:1) solution.
# [4] = target: Human GCGR (Homo sapiens, UniProt P47871); test: Functional hGCGR cAMP assay in HEK-293 clonal cells
# Sequence of Human GCGR (P47871 26-477): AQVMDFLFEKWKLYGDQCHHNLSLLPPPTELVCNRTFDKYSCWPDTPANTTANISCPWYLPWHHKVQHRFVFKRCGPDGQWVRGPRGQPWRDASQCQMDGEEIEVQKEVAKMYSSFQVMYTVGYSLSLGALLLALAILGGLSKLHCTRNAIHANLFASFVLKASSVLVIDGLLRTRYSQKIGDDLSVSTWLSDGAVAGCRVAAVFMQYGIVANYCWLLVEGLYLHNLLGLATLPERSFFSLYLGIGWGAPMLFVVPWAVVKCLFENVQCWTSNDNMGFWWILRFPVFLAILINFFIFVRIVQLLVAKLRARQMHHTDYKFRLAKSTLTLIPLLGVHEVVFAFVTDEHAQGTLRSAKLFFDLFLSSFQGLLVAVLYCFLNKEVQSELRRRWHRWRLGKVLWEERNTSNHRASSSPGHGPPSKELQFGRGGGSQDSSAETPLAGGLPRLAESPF
# [5] = target: T2, human GIP-R (Homo sapiens, UniProt P48546); test: Functional hGIP-R cAMP assay in HEK-293 clonal cells; settings: HEK293, read-out: Human GIP-R Emax
# T2 sequence (P48546 22-466): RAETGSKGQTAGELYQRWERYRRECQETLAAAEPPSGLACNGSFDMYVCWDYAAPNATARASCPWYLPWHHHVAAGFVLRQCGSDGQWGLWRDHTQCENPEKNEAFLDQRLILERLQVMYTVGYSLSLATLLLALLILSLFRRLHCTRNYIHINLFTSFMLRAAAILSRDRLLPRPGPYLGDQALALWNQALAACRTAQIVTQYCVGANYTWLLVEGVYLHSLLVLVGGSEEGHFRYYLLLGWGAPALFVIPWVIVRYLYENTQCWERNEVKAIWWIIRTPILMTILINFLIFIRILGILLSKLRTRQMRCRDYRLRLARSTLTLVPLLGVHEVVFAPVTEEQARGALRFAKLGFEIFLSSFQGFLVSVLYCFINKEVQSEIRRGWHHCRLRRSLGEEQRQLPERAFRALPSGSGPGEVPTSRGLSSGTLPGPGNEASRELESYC
# [6] = system: mouse islets; test: Mouse islet insulin secretion; format: cell-based; settings: read-out: Mouse islet insulin secretion Mean ED50
# Procedure: To assess action of compounds of the present invention in a system representing physiological GLP-1R and GIP-R expression levels insulin secretion, compounds are tested for effects on insulin secretion from wild-type rodent islets.
# After common bile duct cannulation in male C57B1/6 mice (22-26 g) or male Sprague-Dawley rats (approx. 250 g), the pancreas is distended with Hank's buffer (3 ml for mice or 10 ml for rats, containing 2% BSA and 0.75 mg/ml Clzyme collagenase (VitaCyte). Subsequently, tissues are digested in Hank's buffer at 37° C. for 11-13 minutes (mice) or 14-16 minutes for rat pancreata. Purified islets (Histopaque-1100 gradient [Sigma-Aldrich], […] at 750× gravity) are cultured overnight in RPMI-1640 medium (Invitrogen) containing 10% FBS, 100 U/ml penicillin and 100 μg/ml streptomycin, and preconditioned by starvation in Earle's Balanced Salt Solution (EBSS) supplemented with 0.1% BSA and 2.8 mM glucose. Subsequently, islets are incubated in EBSS (Invitrogen) supplemented with 0.1% BSA, 2.8-11.2 mM glucose and increasing levels of compound (6 batches of 4 islets/condition). GLP-1(7-36)amide (30 nM) is used as a positive control. Insulin is measured over 90 minutes in supernatant using the MSD Insulin Assay (Meso Scale, Gaithersburg, Md.).
# T1 sequence (P43220 24-463): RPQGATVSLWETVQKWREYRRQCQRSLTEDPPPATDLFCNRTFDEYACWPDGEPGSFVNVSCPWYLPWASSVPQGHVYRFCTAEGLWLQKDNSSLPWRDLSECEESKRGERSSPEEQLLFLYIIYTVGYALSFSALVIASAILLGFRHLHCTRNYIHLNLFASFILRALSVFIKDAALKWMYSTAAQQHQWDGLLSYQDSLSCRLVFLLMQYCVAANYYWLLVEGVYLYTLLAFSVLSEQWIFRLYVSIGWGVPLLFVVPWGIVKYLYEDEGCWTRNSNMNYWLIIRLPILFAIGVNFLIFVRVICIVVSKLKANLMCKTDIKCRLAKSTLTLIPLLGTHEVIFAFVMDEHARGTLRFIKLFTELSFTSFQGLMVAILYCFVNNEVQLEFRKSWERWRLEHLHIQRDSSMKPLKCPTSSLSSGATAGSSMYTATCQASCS
Compound,Emax [1] [%],"Tmax ([2]; sc, single subcutaneous dose 0.2 mg/kg, read-out: time of mean maximum plasma concentration) [h]",clearance ([2]; 0.2 mg/kg single dose) [mL/day/kg],"half-life ([2]; 0.2 mg/kg single dose, read-out: mean half-life (converted)) [h]","bioavailability ([2]; subcutaneous vs intravenous, 0.2 mg/kg) [%]","Corticosterone, Mean ([3]; 3 nmol/kg s.c.) [ng/mL]","Corticosterone, Mean ([3]; 10 nmol/kg s.c.) [ng/mL]","Corticosterone, Mean ([3]; 30 nmol/kg s.c.) [ng/mL]","increase in plasma corticosterone levels over control ([3]; Example 1 at 3, 10, 30 nmol/kg, semaglutide 10 nmol/kg)",EC50 [4] [nM],Emax [5] [%],EC50 [6] [nM]
CC[C@H](C)[C@H](NC(=O)[C@H](CC(C)C)NC(=O)[C@H](Cc1c[nH]c2ccccc12)NC(=O)[C@H](CCC(N)=O)NC(=O)[C@@H](NC(=O)[C@H](Cc1ccccc1)NC(=O)[C@H](C)NC(=O)[C@H](CCCCNC(=O)COCCOCCNC(=O)COCCOCCNC(=O)CC[C@H](NC(=O)CCCCCCCCCCCCCCCCCCC(=O)O)C(=O)O)NC(=O)[C@H](CCC(N)=O)NC(=O)[C@H](C)NC(=O)[C@@H](NC(=O)[C@H](CCCCN)NC(=O)[C@H](CC(=O)O)NC(=O)[C@H](CC(C)C)NC(=O)C(C)(C)NC(=O)[C@@H](NC(=O)[C@H](CO)NC(=O)[C@H](Cc1ccc(O)cc1)NC(=O)[C@H](CC(=O)O)NC(=O)[C@H](CO)NC(=O)[C@@H](NC(=O)[C@H](Cc1ccccc1)NC(=O)[C@@H](NC(=O)CNC(=O)[C@H](CCC(=O)O)NC(=O)C(C)(C)NC(=O)[C@@H](N)Cc1ccc(O)cc1)[C@@H](C)O)[C@@H](C)O)[C@@H](C)CC)[C@@H](C)CC)C(C)C)C(=O)N[C@@H](C)C(=O)NCC(=O)NCC(=O)N1CCC[C@H]1C(=O)N[C@@H](CO)C(=O)N[C@@H](CO)C(=O)NCC(=O)N[C@@H](C)C(=O)N1CCC[C@H]1C(=O)N1CCC[C@H]1C(=O)N1CCC[C@H]1C(=O)N[C@@H](CO)C(N)=O [Example 1],85.2 ± 4.4,~8,17.5,55,~83,52.21,32.46,31.35,no increase in plasma corticosterone levels,> 1000,97.9 ± 3,–
CC[C@H](C)[C@H](NC(=O)[C@H](CC(C)C)NC(=O)[C@H](Cc1c[nH]c2ccccc12)NC(=O)[C@H](CCC(N)=O)NC(=O)[C@@H](NC(=O)[C@H](Cc1ccccc1)NC(=O)[C@H](C)NC(=O)[C@H](CCCCNC(=O)COCCOCCNC(=O)COCCOCCNC(=O)CC[C@H](NC(=O)CC[C@H](NC(=O)CCCCCCCCCCCCCCCCC(=O)O)C(=O)O)C(=O)O)NC(=O)[C@H](CCC(N)=O)NC(=O)[C@H](C)NC(=O)[C@@H](NC(=O)[C@H](CCCCN)NC(=O)[C@H](CC(=O)O)NC(=O)[C@H](CC(C)C)NC(=O)C(C)(C)NC(=O)[C@@H](NC(=O)[C@H](CO)NC(=O)[C@H](Cc1ccc(O)cc1)NC(=O)[C@H](CC(=O)O)NC(=O)[C@H](CO)NC(=O)[C@@H](NC(=O)[C@H](Cc1ccccc1)NC(=O)[C@@H](NC(=O)CNC(=O)[C@H](CCC(=O)O)NC(=O)C(C)(C)NC(=O)[C@@H](N)Cc1ccc(O)cc1)[C@@H](C)O)[C@@H](C)O)[C@@H](C)CC)[C@@H](C)CC)C(C)C)C(=O)N[C@@H](C)C(=O)NCC(=O)NCC(=O)N1CCC[C@H]1C(=O)N[C@@H](CO)C(=O)N[C@@H](CO)C(=O)NCC(=O)N[C@@H](C)C(=O)N1CCC[C@H]1C(=O)N1CCC[C@H]1C(=O)N1CCC[C@H]1C(=O)N[C@@H](CO)C(N)=O [Example 4],100 ± 5,–,–,–,–,–,–,–,–,> 1000,–,3.5
